One test addresses T1, ATR kinase (Homo sapiens, UniProt Q13535).
T1 construct: purchased Eurofins 14-953
Briefly: Inhibitory effect on ATR kinase activity (Caliper mobility shift, FAM-labeled RAD17 peptide substrate). The format is biochemical. Put shortly:
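Caliper mobility-shift assay with 1 nM ATR, FAM-labeled RAD17 peptide […] and 5 mM ATP in HEPES pH 7.5 with 10 mM MnCl2, run 3 h at 28 °C and stopped with EDTA. Compounds were tested in 10-point 3-fold dilutions from 1 µM. IC50 was fitted from % inhibition of substrate conversion versus blank control.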

The test system of a further test is LoVo cells. Briefly: LoVo cell proliferation assay (CellTiter-Glo). The format is cell-based. The following applies: Homo sapiens, LoVo, 120 h, maximum concentration 10 µM, 9 concentrations. The procedure, abridged:
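LoVo cells, 2,000 per well, were treated after overnight attachment with 9-point 3-fold dilutions from 10 µM for 5 days at 37 °C. Viability was read by CellTiter-Glo luminescence. Inhibition % was taken relative to DMSO control, and IC50 came from the concentration–inhibition curve.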

Where [1] appears, read: 1 nM ATR kinase (Eurofins), 28°C for 3 hours, maximum concentration 1 µM, 10 concentrations, read-out: ATR kinase IC50.
The mark [2] stands for this setting: LoVo cells, 2,000 cells per well, 5 days incubation, CellTiter-Glo, read-out: LoVo IC50.
Setting [3] is: read-out: ATR kinase IC50, 1 nM ATR kinase (Eurofins), 28°C for 3 hours, maximum concentration 1 µM, 10 concentrations.
Setting [4] is: read-out: LoVo IC50 (nM), LoVo cells, 2,000 cells per well, 5 days incubation, CellTiter-Glo.

Where two headings read alike, the source gives them in different places. A value given as a limit tells only on which side of the number the result lay.

T1 sequence (Q13535 whole entry): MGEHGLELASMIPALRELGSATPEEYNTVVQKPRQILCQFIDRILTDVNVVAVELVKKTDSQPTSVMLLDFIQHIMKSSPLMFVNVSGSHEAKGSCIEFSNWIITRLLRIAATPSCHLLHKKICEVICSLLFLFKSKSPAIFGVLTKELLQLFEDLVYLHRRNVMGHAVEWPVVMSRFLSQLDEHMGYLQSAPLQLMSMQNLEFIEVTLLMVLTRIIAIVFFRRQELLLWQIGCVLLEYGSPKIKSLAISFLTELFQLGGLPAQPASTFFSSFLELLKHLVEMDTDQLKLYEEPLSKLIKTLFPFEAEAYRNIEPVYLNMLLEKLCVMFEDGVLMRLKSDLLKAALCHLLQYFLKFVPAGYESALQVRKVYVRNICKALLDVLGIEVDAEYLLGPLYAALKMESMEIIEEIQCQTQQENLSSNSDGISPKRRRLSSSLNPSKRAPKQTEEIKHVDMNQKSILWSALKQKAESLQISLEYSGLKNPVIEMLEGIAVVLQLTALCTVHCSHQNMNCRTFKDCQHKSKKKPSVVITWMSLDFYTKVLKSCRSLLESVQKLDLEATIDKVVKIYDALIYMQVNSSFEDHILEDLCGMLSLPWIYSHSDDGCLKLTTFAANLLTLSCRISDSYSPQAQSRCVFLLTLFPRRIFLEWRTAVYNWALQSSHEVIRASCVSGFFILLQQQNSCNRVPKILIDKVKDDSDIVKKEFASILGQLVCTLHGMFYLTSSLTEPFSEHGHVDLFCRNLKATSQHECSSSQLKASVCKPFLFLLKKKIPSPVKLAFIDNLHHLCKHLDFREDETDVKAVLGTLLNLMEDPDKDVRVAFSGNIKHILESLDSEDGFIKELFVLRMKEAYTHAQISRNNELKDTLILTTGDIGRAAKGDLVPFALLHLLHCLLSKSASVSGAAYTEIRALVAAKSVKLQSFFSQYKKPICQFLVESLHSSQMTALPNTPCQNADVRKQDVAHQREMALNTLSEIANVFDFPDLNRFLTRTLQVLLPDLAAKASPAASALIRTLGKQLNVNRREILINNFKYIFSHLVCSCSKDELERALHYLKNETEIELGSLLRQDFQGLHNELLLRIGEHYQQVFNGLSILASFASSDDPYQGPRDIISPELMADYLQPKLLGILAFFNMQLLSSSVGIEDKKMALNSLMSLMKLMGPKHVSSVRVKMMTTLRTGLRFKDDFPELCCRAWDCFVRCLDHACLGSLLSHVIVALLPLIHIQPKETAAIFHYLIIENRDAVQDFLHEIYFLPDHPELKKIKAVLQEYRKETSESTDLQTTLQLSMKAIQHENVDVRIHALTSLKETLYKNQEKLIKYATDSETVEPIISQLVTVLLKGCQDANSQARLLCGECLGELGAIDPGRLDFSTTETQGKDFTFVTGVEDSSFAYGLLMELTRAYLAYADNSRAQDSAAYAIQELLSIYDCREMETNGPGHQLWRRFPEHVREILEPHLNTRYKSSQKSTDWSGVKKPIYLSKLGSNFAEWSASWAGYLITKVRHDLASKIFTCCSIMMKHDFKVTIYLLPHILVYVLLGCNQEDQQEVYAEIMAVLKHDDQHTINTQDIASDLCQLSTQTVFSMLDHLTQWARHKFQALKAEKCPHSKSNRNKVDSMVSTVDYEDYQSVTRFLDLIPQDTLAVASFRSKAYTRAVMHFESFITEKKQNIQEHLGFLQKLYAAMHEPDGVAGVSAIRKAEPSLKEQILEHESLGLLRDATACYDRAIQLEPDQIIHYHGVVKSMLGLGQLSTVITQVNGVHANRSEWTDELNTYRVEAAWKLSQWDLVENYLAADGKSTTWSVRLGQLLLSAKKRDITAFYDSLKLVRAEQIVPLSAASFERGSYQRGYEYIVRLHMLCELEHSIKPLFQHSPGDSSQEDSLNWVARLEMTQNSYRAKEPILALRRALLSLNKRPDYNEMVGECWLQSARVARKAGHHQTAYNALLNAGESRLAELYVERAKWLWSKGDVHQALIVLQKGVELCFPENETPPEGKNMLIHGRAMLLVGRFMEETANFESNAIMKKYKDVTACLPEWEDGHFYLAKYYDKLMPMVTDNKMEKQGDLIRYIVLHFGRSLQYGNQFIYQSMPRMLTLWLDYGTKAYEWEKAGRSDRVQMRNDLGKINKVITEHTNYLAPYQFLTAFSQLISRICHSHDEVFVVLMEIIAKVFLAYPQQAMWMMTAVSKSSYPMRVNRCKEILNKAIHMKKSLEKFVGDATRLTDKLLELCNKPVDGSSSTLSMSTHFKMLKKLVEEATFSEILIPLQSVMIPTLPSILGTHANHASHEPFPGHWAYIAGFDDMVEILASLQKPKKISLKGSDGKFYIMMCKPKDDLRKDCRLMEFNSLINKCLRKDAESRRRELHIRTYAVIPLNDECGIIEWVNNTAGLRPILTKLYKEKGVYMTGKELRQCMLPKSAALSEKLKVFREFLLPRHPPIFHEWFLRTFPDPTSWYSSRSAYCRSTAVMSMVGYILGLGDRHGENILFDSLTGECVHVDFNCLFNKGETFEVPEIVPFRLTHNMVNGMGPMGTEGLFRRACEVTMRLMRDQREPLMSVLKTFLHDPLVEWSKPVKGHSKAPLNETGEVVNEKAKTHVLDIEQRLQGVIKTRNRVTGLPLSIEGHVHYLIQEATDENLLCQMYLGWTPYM
T1 sequence (Q8WXE1 whole entry partner): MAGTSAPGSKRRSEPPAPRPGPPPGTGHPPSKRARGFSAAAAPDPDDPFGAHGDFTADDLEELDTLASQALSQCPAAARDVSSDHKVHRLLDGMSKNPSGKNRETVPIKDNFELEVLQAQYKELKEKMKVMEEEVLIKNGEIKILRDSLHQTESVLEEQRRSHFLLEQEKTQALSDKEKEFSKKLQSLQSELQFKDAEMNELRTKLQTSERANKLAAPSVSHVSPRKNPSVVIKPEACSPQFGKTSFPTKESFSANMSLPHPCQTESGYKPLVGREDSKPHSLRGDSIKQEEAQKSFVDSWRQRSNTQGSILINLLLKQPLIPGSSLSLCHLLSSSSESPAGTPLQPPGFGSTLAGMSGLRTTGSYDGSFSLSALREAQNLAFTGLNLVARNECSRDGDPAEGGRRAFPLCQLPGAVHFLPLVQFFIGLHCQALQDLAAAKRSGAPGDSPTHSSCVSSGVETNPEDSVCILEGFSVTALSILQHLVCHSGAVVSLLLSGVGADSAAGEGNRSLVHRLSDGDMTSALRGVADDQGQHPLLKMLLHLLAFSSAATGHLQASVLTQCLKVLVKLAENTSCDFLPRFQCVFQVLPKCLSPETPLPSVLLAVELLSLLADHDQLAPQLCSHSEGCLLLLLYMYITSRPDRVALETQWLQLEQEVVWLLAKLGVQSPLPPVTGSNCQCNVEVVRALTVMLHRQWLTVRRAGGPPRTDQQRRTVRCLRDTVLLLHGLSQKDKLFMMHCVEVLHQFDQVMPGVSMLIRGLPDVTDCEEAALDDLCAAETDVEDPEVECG

For `C[C@@H]1COCCN1c1cc2c3c(n1)c(-c1cc[nH]n1)nn3CCCN2C1CC1` [Compound 122, (R)-4-(6-cyclopropyl-2-(1H-pyrazol-3-yl)-6,7,8,9-tetrahydro-1,3,6,9a-tetraazabenzo[cd]azulen-4-yl)-3-methylmorpholine], the IC50 at ATR kinase (setting [1]) is 10 to 100 nM; in the test with LoVo cells (setting [2]) it was 100 to 1000 nM.
As for `C[C@@H]1COCCN1c1cc2c3c(n1)c(-c1cc[nH]n1)nn3CCCN2CC(C)(C)O` [Compound 123, (R)-2-methyl-1-(4-(3-methylmorpholinyl)-2-(1H-pyrazol-3-yl)-8,9-dihydro-1,3,6,9a-tetraazabenzo[cd]azulene-6(7H)-yl)propan-2-ol], the IC50 on ATR kinase (setting [3]) fell in the range of 10 to 100 nM; with LoVo cells (setting [4]), 100 to 1000 nM.
For `C[C@@H]1COCCN1c1cc2c3c(nn(-c4cc[nH]n4)c3n1)CCN(C1CC1)C2=O` [Compound 132, (R)-7-cyclopropyl-4-(3-methylmorpholino)-2-(1H-pyrazol-3-yl)-2,7,8,9-tetrahydro-6H-1,2,3,7-tetraazabenzo[cd]azulene-6-one], the IC50 was 10 to 100 nM on ATR kinase (setting [1]) and less than 100 nM with LoVo cells (setting [2]).
For `C[C@@H]1COCCN1c1cc2c3c(nn(-c4cc[nH]n4)c3n1)CCN(C1COC1)C2C1CC1` (stereo partly drawn) [Compound 135, (3R)-4-(6-cyclopropyl-7-(oxetan-3-yl)-2-(1H-pyrazol-3-yl)-6,7,8,9-tetrahydro-2H-1,2,3,7-tetraazabenzo[cd]azulen-4-yl)-3-methylmorpholine] the same measures were 10 to 100 nM and less than 100 nM.
Taken in the same sequence, the figures for `CC(C)C1c2cc(N3CCOC[C@H]3C)nc3c2c(nn3-c2cc[nH]n2)CCN1C1COC1` (stereo partly drawn) [Compound 136, (3R)-4-(6-isopropyl-7-(oxetan-3-yl)-2-(1H-pyrazol-3-yl)-6,7,8,9-tetrahydro-2H-1,2,3,7-tetraazabenzo[cd]azulen-4-yl)-3-methylmorpholine] were 10 to 100 nM and less than 100 nM.
With `C[C@@H]1COCCN1c1cc2c3c(nn(-c4cc[nH]n4)c3n1)CCN(C13CC(C1)C3)C2=O` [Compound 139, (R)-7-(bicyclo[1.1.1]pentan-1-yl)-4-(3-methylmorpholinyl)-2-(1H-pyrazol-3-yl)-2,7,8,9-tetrahydro-6H-1,2,3,7-tetraazabenzo[cd]azulene-6-one], the IC50 at ATR kinase (setting [3]) is less than 10 nM; in the test on LoVo cells (setting [4]) it was 100 to 1000 nM.
On to `C[C@@H]1COCCN1c1cc2c3c(nn(-c4cc[nH]n4)c3n1)CCOC2(C)C` [Compound 146, (R)-6,6-dimethyl-4-(3-methylmorpholino)-2-(1H-pyrazol-3-yl)-2,6,8,9-tetrahydro-7-oxa-1,2,3-triazabenzo[cd]azulene], for which the IC50 at ATR kinase (setting [1]) is less than 10 nM; in the test on LoVo cells (setting [2]), less than 100 nM.
On to `C[C@@H]1COCCN1c1cc2c3c(nn(-c4cc[nH]n4)c3n1)CCOC21CCC1` [Compound 147, (R)-4-(3-Methylmorpholino)-2-(1H-pyrazol-3-yl)-8,9-dihydro-2H-7-oxa-1,2,3-triazaspiro[benzo[cd]azulene-6,1'-cyclobutane]-1(9a),2a,2a1(5a),4-tetraene], for which the IC50 at ATR kinase (ATR kinase IC50 (nM), 1 nM ATR kinase (Eurofins), 28°C for 3 hours, maximum concentration 1 µM, 10 concentrations) was less than 10 nM; in the test on LoVo cells (setting [4]) it was less than 100 nM.
`C[C@@H]1COCCN1c1cc2c3c(nn(-c4cc[nH]n4)c3n1)CCN(C)C2(C)C` [Compound 149, (R)-3-methyl-4-(6,6,7-trimethyl-2-(1H-pyrazol-3-yl)-6,7,8,9-tetrahydro-2H-1,2,3,7-tetraazabenzo[cd]azulen-4-yl)morpholine]: the values for the IC50 on ATR kinase (setting [1]) and with LoVo cells (setting [2]) were less than 10 nM and less than 100 nM, respectively.
Turning to `CC1c2cc(N3CCOC[C@H]3C)nc3c2c(nn3-c2cc[nH]n2)CCN1S(C)(=O)=NC1CC1` (stereo partly drawn) [Compound 153, (3R)-4-(7-(N-cyclopropyl-S-methylsulfonylimino)-6-methyl-2-(1H-pyrazol-3-yl)-6,7,8,9-tetrahydro-2H-1,2,3,7-tetraazabenzo[cd]azulen-4-yl)-3-methylmorpholine], the figures for the IC50 on ATR kinase (setting [3]) and in the test with LoVo cells (setting [4]) were 10 to 100 nM and 100 to 1000 nM, respectively.
Regarding `C[C@@H]1COCCN1c1cc2c3c(nc(-c4cc[nH]n4)n3n1)CCC(=O)N2C1(C)CC1` [Compound 154, (R)-6-(1-methylcyclopropyl)-4-(3-methylmorpholino)-2-(1H-pyrazol-3-yl)-8,9-dihydro-1,2a,3,6-tetraazabenzo[cd]azulene-7(6H )-one], the IC50 was less than 10 nM at ATR kinase (setting [1]) and less than 100 nM in the test on LoVo cells (setting [2]).
